Here are results for 42 compounds from ChEMBL document CHEMBL1131573, “Potent dipeptide inhibitors of the pp60c-src SH2 domain” (J Med Chem, 1998).

Square brackets hold non-standard residues; d marks the D form. Peptide text beside a SMILES is read from it. pY = N[C@@H](Cc1ccc(OP(=O)(O)O)cc1)C(=O)O; Ahp = NCCCCCCC(=O)O

This assay in a line: Binding affinity against c-Src tyrosine kinase SH2 domain expressed as ratio of IC50 of test compound over IC50 of AcYEEIE.
With `CC(=O)N[C@@H](Cc1ccc(OP(=O)(O)O)cc1)C(=O)N[C@@H](CCC(=O)O)C(=O)N(C)CCc1c[nH]c2ccccc12`, the Ratio turned out to be 31.8.

Consider `CCCCCN(CCC(=O)OCC)C(=O)[C@H](CCC(=O)O)NC(=O)[C@H](Cc1ccc(OP(=O)(O)O)cc1)NC(C)=O`, for which the Ratio was 26. With `CCCCCN(CCCCC)C(=O)[C@H](CCC(=O)O)NC(=O)[C@H](Cc1ccc(OP(=O)(O)O)cc1)NC(=O)Nc1ccc(N)cc1` the figure was 26.9. Then `CCCCCN(CCO)C(=O)[C@H](CCC(=O)O)NC(=O)[C@H](Cc1ccc(OP(=O)(O)O)cc1)NC(C)=O`, with 16.7; and `CC(=O)N[C@@H](Cc1ccc(OP(=O)(O)O)cc1)C(=O)N[C@@H](CCC(=O)O)C(=O)N(C)CCCCCCCCO`, with 2.2. Then `CCCCCN(CCCCC)C(=O)[C@H](CCC(=O)O)NC(=O)[C@H](Cc1ccc(OP(=O)(O)O)cc1)NC(=O)COCc1ccccc1`, with 32.7. In the case of `CC(=O)N[C@@H](Cc1ccc(OP(=O)(O)O)cc1)C(=O)N[C@@H](CCC(=O)O)C(=O)NCCc1c[nH]c2ccc(O)cc12`, the Ratio turned out to be 31.5. Regarding `CCCCCN(C)C(=O)[C@H](CCC(=O)O)NC(=O)[C@H](Cc1ccc(OP(=O)(O)O)cc1)NC(C)=O`, the Ratio turned out to be 12. With `CC(=O)N[C@@H](Cc1ccc(OP(=O)(O)O)cc1)C(=O)N[C@@H](CCC(=O)O)C(=O)N(C)CCCc1c[nH]c2ccccc12` the figure was 11.6; with `CCCCCN(CCCCC)C(=O)[C@H](CCC(=O)O)NC(=O)[C@H](Cc1ccc(OP(=O)(O)O)cc1)NC(=O)Nc1ccc([N+](=O)[O-])cc1`, 184. With `CCCCCNC(=O)[C@H](CCC(=O)O)NC(=O)[C@H](Cc1ccc(OP(=O)(O)O)cc1)NC(C)=O` the figure was 16.6; with `CCCCCN(CCCCC)C(=O)[C@H](CCC(=O)O)NC(=O)[C@H](Cc1ccc(OP(=O)(O)O)cc1)NC(=O)CCc1ccccc1`, 10.8; with `CCCCCN(CCCCC)C(=O)[C@H](CCC(=O)O)NC(=O)[C@H](Cc1ccc(OP(=O)(O)O)cc1)NC(=O)CCc1ccc(O)cc1`, 26.7. Then `CC(=O)N[C@@H](Cc1ccc(OP(=O)(O)O)cc1)C(=O)N[C@@H](CCC(=O)O)C(N)=O` (Ac-[pY]-Glu-NH2), with 200. As to `CCCCCN(CCCCC)C(=O)[C@H](CCC(=O)O)NC(=O)[C@H](Cc1ccc(OP(=O)(O)O)cc1)NC(=O)CCCc1ccccc1`, the Ratio is 27.2.

Turning to `CCCCCCCN(CCCCCCC)C(=O)[C@H](CCC(=O)O)NC(=O)[C@H](Cc1ccc(OP(=O)(O)O)cc1)NC(C)=O`, the Ratio turned out to be 327. Then `CCCCCN(CCCCC)C(=O)[C@H](CCS(C)(=O)=O)NC(=O)[C@H](Cc1ccc(OP(=O)(O)O)cc1)NC(C)=O`, with 75.3. Then `CCCCCN(CCCCC)C(=O)[C@H](CCC(=O)O)NC(=O)[C@H](Cc1ccc(OP(=O)(O)O)cc1)NC(=O)CSc1ccccc1`, with 17.7; and `CC(=O)N[C@@H](Cc1ccc(OP(=O)(O)O)cc1)C(=O)N[C@@H](CCC(=O)O)C(=O)N(C)CCCCCCO`, with 6.4; and `CC(=O)N[C@@H](Cc1ccc(OP(=O)(O)O)cc1)C(=O)N[C@@H](CCC(=O)O)C(=O)NCCCCCCC(=O)O` (Ac-[pY]-Glu-[Ahp]-OH), with 36.7. Then `CCCCCN(CCCCC)C(=O)[C@H](CCC(=O)O)NC(=O)[C@H](Cc1ccc(OP(=O)(O)O)cc1)NC(=O)CCc1cccnc1`, with 17.7; and `CC(=O)N[C@@H](Cc1ccc(OP(=O)(O)O)cc1)C(=O)N[C@@H](CCC(=O)O)C(=O)N(C)CCCc1c(C(N)=O)[nH]c2ccccc12`, with 9.3.

Turning to `COc1ccc2[nH]cc(CCNC(=O)[C@H](CCC(=O)O)NC(=O)[C@H](Cc3ccc(OP(=O)(O)O)cc3)NC(C)=O)c2c1`, the Ratio came to 29.7. Then `CC(=O)N[C@@H](Cc1ccc(OP(=O)(O)O)cc1)C(=O)N[C@@H](CCC(=O)O)C(=O)NCCCCCCC(N)=O` (Ac-[pY]-Glu-[Ahp]-NH2), with 115; and `CCCCCN(CCCCC)C(=O)[C@H](CSCc1ccccc1)NC(=O)[C@H](Cc1ccc(OP(=O)(O)O)cc1)NC(C)=O`, with 155; and `CCCCCN(CCCCC)C(=O)[C@H](CCC(=O)O)NC(=O)[C@H](Cc1ccc(OP(=O)(O)O)cc1)NC(=O)c1ccc(OC)cc1`, with 7.2. With `CCCCCN(CCCCC)C(=O)[C@H](CCSC)NC(=O)[C@H](Cc1ccc(OP(=O)(O)O)cc1)NC(C)=O` the figure was 16.5; with `CCCCCN(CCCCC)C(=O)[C@H](CCC(=O)O)NC(=O)[C@H](Cc1ccc(OP(=O)(O)O)cc1)NC(=O)OCc1ccccc1`, 79.7; with `CC(=O)N[C@@H](Cc1ccc(OP(=O)(O)O)cc1)C(=O)N[C@@H](CCC(=O)O)C(=O)N(C)CCCCCCCO`, 3.6. Regarding `CCCCCN(CCCCC)C(=O)[C@H](CCC(=O)O)NC(=O)[C@H](Cc1ccc(OP(=O)(O)O)cc1)NC(=O)Cc1ccccc1`, the Ratio amounted to 16.5. Then `CCCCCN(CCCCC)C(=O)[C@H](CCC(=O)O)NC(=O)[C@H](Cc1ccc(OP(=O)(O)O)cc1)NC(=O)c1ccccc1`, with 15.3. With `CCCCCN(CCCCC)C(=O)[C@H](CCC(=O)O)NC(=O)[C@H](Cc1ccc(OP(=O)(O)O)cc1)NC(=O)Cc1ccc(CN)cc1` the figure was 92.1. Then `CCCCCCN(CCCCCC)C(=O)[C@H](CCC(=O)O)NC(=O)[C@H](Cc1ccc(OP(=O)(O)O)cc1)NC(C)=O`, with 24; and `CCCCCN(CCCCC)C(=O)[C@H](CCC(=O)O)NC(=O)[C@H](Cc1ccc(OP(=O)(O)O)cc1)NC(=O)c1ccc([N+](=O)[O-])cc1`, with 5.7; and `CCCCCN(CCCCC)C(=O)[C@H](CCC(=O)O)NC(=O)[C@H](Cc1ccc(OP(=O)(O)O)cc1)NC(=O)Nc1ccc(OC)cc1`, with 13.5. Turning to `CCCCCN(CCCCC)C(=O)[C@H](CCC(=O)O)NC(=O)[C@H](Cc1ccc(OP(=O)(O)O)cc1)NC(=O)CSCc1ccccc1`, the Ratio worked out at 18.9. In the case of `CC(=O)N[C@@H](Cc1ccc(OP(=O)(O)O)cc1)C(=O)N[C@@H](CCC(=O)O)C(=O)O` (Ac-[pY]-Glu-OH), the Ratio was 606. Then `CCCCCN(CCCCC)C(=O)[C@H](CCC(=O)O)NC(=O)[C@H](Cc1ccc(OP(=O)(O)O)cc1)NC(=O)C(F)(F)F`, with 57.2; and `CCCCCN(CCCCC)C(=O)[C@H](CCC(=O)O)NC(=O)[C@H](Cc1ccc(OP(=O)(O)O)cc1)NC(=O)c1ccc(Cl)cc1`, with 39.

With `CCCCCN(CCCCC)C(=O)[C@H](CSC)NC(=O)[C@H](Cc1ccc(OP(=O)(O)O)cc1)NC(C)=O`, the Ratio was determined as 33.1. With `CCCCCN(CCCCC)C(=O)[C@H](CCC(=O)O)NC(=O)[C@H](Cc1ccc(OP(=O)(O)O)cc1)NC(=O)c1ccc(C(F)(F)F)cc1` the figure was 25.4; with `CCCCCN(CCC(=O)O)C(=O)[C@H](CCC(=O)O)NC(=O)[C@H](Cc1ccc(OP(=O)(O)O)cc1)NC(C)=O`, 48.
